Results as given in ChEMBL document CHEMBL3124761, “Synthesis and biological evaluation of N,N'-squaramides with high in vivo efficacy and low toxicity: toward a low-cost drug against Chagas disease” (J Med Chem, 2014).
Calls of active or inactive are those of the source. The calls are words filed in the database; no cut-off is given here.

Tests used:
Trypanosoma cruzi [1] = assay: (§1) Antitrypanosomal activity against trypomastigote stage of Trypanosoma cruzi IRHOD/CO/2008/SN3 assessed as reduction of trypomastigote number per mililiter of culture medium at IC25 preincubated for 12 hrs followed by compound washout measured every 48 hrs for 10 days by Neubauer hemocytometric chamber analysis relative to control; type: functional
Mus musculus [2] = assay: Toxicity in BALB/c albino mouse infected with blood trypomastigote stage of Trypanosoma cruzi assessed as change in LDH level in serum at 25 mg/kg, ip administered on day 7 to 12 post-infection measured after day 120 relative to control; type: organism-based; parameters: dose 25 mg/kg, route intraperitoneal; settings: in vivo
Trypanosoma cruzi [3] = assay: Antitrypanosomal activity against epimastigote stage of Trypanosoma cruzi IRHOD/CO/2008/SN3 assessed as change in excreted alanine level at IC25 after 96 hrs by 1H NMR analysis relative to control; type: functional
Trypanosoma cruzi [4] = assay: as §1, with “amastigote” for “trypomastigote”, “IRHOD/CO/2008/SN3 infected in African green monkey Vero cells” for “IRHOD/CO/2008/SN3”, “cell” for “mililiter of culture medium”; type: functional
Mus musculus [5] = assay: Toxicity in BALB/c albino mouse assessed as mortality at 25 mg/kg, ip administered for 5 days; type: organism-based; parameters: dose 25 mg/kg, route intraperitoneal; settings: in vivo, 120 h
Mus musculus [6] = assay: Toxicity in BALB/c albino mouse infected with blood trypomastigote stage of Trypanosoma cruzi assessed as increase in total bilirubin level in serum at 25 mg/kg, ip administered on day 7 to 12 post-infection measured after day 120 relative to control; type: organism-based; parameters: dose 25 mg/kg, route intraperitoneal; settings: in vivo
Trypanosoma cruzi [7] = assay: Trypanocidal activity against metacyclic trypomastigote stage of Trypanosoma cruzi infected in BALB/c albino mouse acute chagas disease model assessed as inhibition of parasitemia at 25 mg/kg, ip administered on day 7 to 12 post-infection measured every 2 days until day 40 […] relative to control; type: functional; settings: route intraperitoneal
Mus musculus [8] = assay: Toxicity in BALB/c albino mouse infected with blood trypomastigote stage of Trypanosoma cruzi assessed as change in urea level in serum at 25 mg/kg, ip administered on day 7 to 12 post-infection measured after day 120 relative to control; type: organism-based; parameters: dose 25 mg/kg, route intraperitoneal; settings: in vivo
Trypanosoma cruzi [9] = assay: Antitrypanosomal activity against amastigote stage of Trypanosoma cruzi IRHOD/CO/2008/SN3 infected in African green monkey Vero cells assessed as decrease in infection rate at IC25 preincubated for 12 hrs followed by compound washout measured every 48 hrs for 10 days by Neubauer hemocytometric chamber analysis relative to control; type: functional
[10] = Selectivity index, ratio of IC50 for African green monkey Vero cells to IC50 for amastigote stage of Trypanosoma cruzi IRHOD/CO/2008/SN3 infected in African green monkey Vero cells; type: toxicity, cell-based; settings: read-out: Ratio IC50
Trypanosoma cruzi [11] = assay: Antitrypanosomal activity against epimastigote stage of Trypanosoma cruzi IRHOD/CO/2008/SN3 assessed as change in excreted pyruvate level at IC25 after 96 hrs by 1H NMR analysis relative to control; type: functional
Trypanosoma cruzi [12] = assay: Trypanocidal activity against metacyclic trypomastigote stage of Trypanosoma cruzi infected in BALB/c albino mouse acute chagas disease model assessed as reduction of parasite burden at 25 mg/kg, ip administered on day 7 to 12 post-infection measured on day 14 by ELISA; type: functional, organism-based; parameters: dose 25 mg/kg
Trypanosoma cruzi [13] = assay: Antitrypanosomal activity against amastigote stage of Trypanosoma cruzi IRHOD/CO/2008/SN3 infected in African green monkey Vero cells assessed as parasite growth inhibition after 72 hrs by Giemsa staining-based microscopic analysis; type: functional, organism-based; settings: IRHOD/CO/2008/SN3, Vero
[14] = Selectivity index, ratio of IC50 for African green monkey Vero cells to IC50 for epimastigote stage of Trypanosoma cruzi IRHOD/CO/2008/SN3; type: toxicity, cell-based; settings: read-out: Ratio IC50
Mus musculus [15] = assay: Toxicity in BALB/c albino mouse infected with blood trypomastigote stage of Trypanosoma cruzi assessed as increase in AST/GOT level in serum at 25 mg/kg, ip administered on day 7 to 12 post-infection measured after day 120 relative to control; type: organism-based; parameters: dose 25 mg/kg, route intraperitoneal; settings: in vivo
Mus musculus [16] = assay: Toxicity in BALB/c albino mouse infected with blood trypomastigote stage of Trypanosoma cruzi assessed as change in uric acid level in serum at 25 mg/kg, ip administered on day 7 to 12 post-infection measured after day 120 relative to control; type: organism-based; parameters: dose 25 mg/kg, route intraperitoneal; settings: in vivo
Mus musculus [17] = assay: Toxicity in BALB/c albino mouse infected with blood trypomastigote stage of Trypanosoma cruzi assessed as decrease in ALT/GPT level in serum at 25 mg/kg, ip administered on day 7 to 12 post-infection measured after day 120 relative to control; type: organism-based; parameters: dose 25 mg/kg, route intraperitoneal; scale not given: the % may be the effect or the level left; settings: in vivo
Trypanosoma cruzi [18] = assay: Antitrypanosomal activity against epimastigote stage of Trypanosoma cruzi IRHOD/CO/2008/SN3 assessed as change in excreted acetate level at IC25 after 96 hrs by 1H NMR analysis relative to control; type: functional
Trypanosoma cruzi [19] = assay: Antitrypanosomal activity against epimastigote stage of Trypanosoma cruzi IRHOD/CO/2008/SN3 assessed as change in excreted lactate level at IC25 after 96 hrs by 1H NMR analysis relative to control; type: functional
Trypanosoma cruzi [20] = assay: Antitrypanosomal activity against epimastigote stage of Trypanosoma cruzi IRHOD/CO/2008/SN3 assessed as parasite growth inhibition after 72 hrs by Neubauer hemocytometric chamber analysis; type: functional, organism-based; settings: IRHOD/CO/2008/SN3, 72 h
Mus musculus [21] = assay: Toxicity in BALB/c albino mouse infected with blood trypomastigote stage of Trypanosoma cruzi assessed as change in alkaline phosphatase level in serum at 25 mg/kg, ip administered on day 7 to 12 post-infection measured after day 120 relative to control; type: organism-based; parameters: dose 25 mg/kg, route intraperitoneal; settings: in vivo
Vero = assay: Cytotoxicity against African green monkey Vero cells assessed as cell viability after 72 hrs by propidium iodide/fluorescein diacetate staining-based flow cytometric analysis; settings: Chlorocebus sabaeus
Trypanosoma cruzi [22] = assay: Antitrypanosomal activity against epimastigote stage of Trypanosoma cruzi IRHOD/CO/2008/SN3 assessed as change in excreted succinate level at IC25 after 96 hrs by 1H NMR analysis relative to control; type: functional
Mus musculus [23] = assay: Toxicity in BALB/c albino mouse infected with blood trypomastigote stage of Trypanosoma cruzi assessed as decrease in creatinephophokinase-MB level in serum at 25 mg/kg, ip administered on day 7 to 12 post-infection measured after day 120 relative to control; type: organism-based; parameters: dose 25 mg/kg, route intraperitoneal; scale not given: the % may be the effect or the level left; settings: in vivo

SMILES: CCCCNc1c(NCCCN(CCCC)CCCC)c(=O)c1=O
- inhibition (INH) (Trypanosoma cruzi [1]): 38%
- Activity (Mus musculus [2]): < 10%
- Activity (Trypanosoma cruzi [3]): -7.9%
- inhibition (INH) (Trypanosoma cruzi [4]): 45%
- Activity (Mus musculus [5]): Non-toxic
- Activity (Mus musculus [6]): 30%
- inhibition in vivo at 25 mg/kg (Trypanosoma cruzi [7]): 21%
- Activity (Mus musculus [8]): < 10%
- inhibition (INH) (Trypanosoma cruzi [9]): 61%
- selectivity ratio [10]: 24.6
- Activity (Trypanosoma cruzi [11]): -12%
- Activity (Trypanosoma cruzi [12]): Active
- IC50 (Trypanosoma cruzi [13]): 6 µM
- selectivity ratio [14]: 13.3
- Activity (Mus musculus [15]): 40%
- Activity (Mus musculus [16]): < 10%
- Activity (Mus musculus [17]): 10%
- Activity (Trypanosoma cruzi [18]): 8.5%
- Activity (Trypanosoma cruzi [19]): -22.3%
- IC50 (Trypanosoma cruzi [20]): 21.1 µM
- Activity (Mus musculus [21]): < 10%
- IC50 (Vero): 148 µM
- Activity (Trypanosoma cruzi [22]): -21.6%
- Activity (Mus musculus [23]): 30%
